Results taken from article PMC3235409 (Bioorganic & medicinal chemistry, 2011).

How the values were obtained:
[1] = test system: purified bovine brain tubulin; assay: Fluorescence-based tubulin polymerization assay; type: biochemical; details: 10 µM, cell-free
[2] = test system: Akt (phospho-Akt and total Akt) in HT29 cells; assay: Western analysis of phospho-Akt and total Akt; type: cell-based, human; details: 24 h, Western blot; for effect on Akt expression and phosphorylation, 1 µM: HT29, 1 µM; for effect on Akt expression and phosphorylation: HT29, 1 or 2 µM (not specified)
[3] = test system: caspase-3/7 activity in HT29 cells; assay: Caspase 3/7 activity assay; type: cell-based, human; details: HT29, 1.25 – 5 µM, 24 h
[4] = test system: HT29 cells; assay: TUNEL assay; type: cell-based, human; details: HT29, 5 µM, 48 h

CC(=O)O[C@H]1C(=O)[C@@]2(C)[C@H]([C@H](OC(=O)c3ccccc3)[C@]3(O)C[C@H](OC(=O)[C@H](O)[C@@H](NC(=O)c4ccccc4)c4ccccc4)C(C)=C1C3(C)C)[C@]1(OC(C)=O)CO[C@@H]1C[C@@H]2O [paclitaxel]
effect on microtubule formation versus vehicle control [1]: stabilized microtubules

N#CSCc1ccc(CN2C(=O)C(=O)c3cc(Br)cc(Br)c32)cc1 [Compound 11, 5,7-Dibromo-N-(p-thiocyanomethylbenzyl)isatin]
effect on Akt expression and phosphorylation, 1 µM [2]: reduced Akt protein levels and strongly suppressed the phosphorylation of Akt
effect on Akt expression and phosphorylation [2]: Akt levels were reduced but the phosphorylation was virtually eliminated
caspase-3/7 activity relative to DMSO vehicle treated cells [3]: significant dose dependent increases in caspase-3/7 activity
inhibition of the rate of microtubule polymerization ([1]; 1 h at 37 °C): about 71%
TUNEL staining (DNA fragmentation) [4]: significant number of TUNEL-positive colon cancer cells

O=C1C(=O)N(Cc2ccc(CN=C=S)cc2)c2c(Br)cc(Br)cc21 [Compound 13, 5,7-Dibromo-N-(p-isothiocyanatomethylbenzyl)isatin]
effect on Akt expression and phosphorylation, 1 µM [2]: reduced Akt protein levels and strongly suppressed the phosphorylation of Akt
effect on Akt expression and phosphorylation [2]: Akt levels were reduced but the phosphorylation was virtually eliminated
caspase-3/7 activity relative to DMSO vehicle treated cells [3]: significant dose dependent increases in caspase-3/7 activity

N#C[Se]CCCN1C(=O)C(=O)c2cc(Br)cc(Br)c21 [Compound 5, 5,7-Dibromo-N-(3’-selenocyanatopropyl)isatin]
caspase-3/7 activity relative to DMSO vehicle treated cells [3]: significant dose dependent increases in caspase-3/7 activity

CC[C@]1(O)C[C@@H]2CN(CCc3c([nH]c4ccccc34)[C@@](C(=O)OC)(c3cc4c(cc3OC)N(C)[C@H]3[C@@](O)(C(=O)OC)[C@H](OC(C)=O)[C@]5(CC)C=CCN6CC[C@]43[C@@H]65)C2)C1.O=S(=O)(O)O [Vinblastine, vinblastine sulfate]
effect on microtubule formation versus vehicle control [1]: strongly inhibited microtubule formation

O=C1C(=O)N(CCCN=C=S)c2c(Br)cc(Br)cc21 [Compound 6, 5,7-Dibromo-N-(3’-isothiocyanatopropyl)isatin]
effect on Akt expression and phosphorylation, 1 µM [2]: very little effect on either expression or phosphorylation of Akt
effect on Akt expression and phosphorylation, 2 µM ([2]; HT29, 2 µM): both levels and phosphorylation state of Akt were reduced
caspase-3/7 activity relative to DMSO vehicle treated cells [3]: significant dose dependent increases in caspase-3/7 activity
TUNEL staining (DNA fragmentation) [4]: significant number of TUNEL-positive colon cancer cells
